Measurements: US8642784B2, “Biologically active compound N-[3-(4-nitrophenylamino)-indole-2-ilmethylene]aminoguanidine hydrochloride with anti-inflammatory activity” (priority 2010, dated 2014)
Counter-ions that a name gives are not always drawn. Like-named read-outs stand apart in the source and are kept apart here. Marks after values point to notes of the source that are not given here.

Experiments:
[1] = system: adjuvant arthritis in Wistar rats; experiment: Chronic arthritis (adjuvant arthritis) model in Wistar rats; assay type: in vivo
Method: Compound of formula 2 was tested in chronic arthritis (adjuvant arthritis) model in Wistar rats.
In the same dose the compound has shown a potent (better than indomethacin) chondroprotective action towards interphalangeal joints of affected leg (x-ray (röntgenography) data). In intragastric administration (analog of per os) the compound has shown systemic anti-inflammatory action (reduction of swelling, leukocytosis, TNFα level, chondroprotective action) that may be associated with the inhibition of delayed type hypersensitivity.

[2] = system: LPS-induced peritonitis in mice; experiment: LPS-induced peritonitis in mice, volume of exudate; assay type: in vivo
Method: Activity was studies using the methods listed in “Methodical recommendations on experimental (preclinical) research of new nonsteroidal anti-inflammatory drugs” for new compounds screening, in animal models of peritonitis induced by lipopolysaccharide (LPS) and carrageenan.
(§1) Anti-exudative action was studied in male mice with body mice 22.0-23.0 g. Peritonitis was induced by intraperitoneal administration of lipopolysaccharide (LPS), produced from Escherichia coli (Sigma) 1.0 mg/kg, as described in [6]: after 4 hours the animals were sacrificed by CO2, their peritoneal cavity opened and the volume of exudate was measured in ml. Studied compounds and drugs of comparison were administered per os one hour before LPS, control group was composed of mice receiving 0.3 ml of saline before LPS administration. Each group had 10 animals.
(§2) The results were processed using variation statistics methods for biological research (mean standard error, means were calculated using Student's t-distribution).

mice stomach [3] = experiment: Aggravation of ulcerogenic effects by 0.6H hydrochloric acid; assay type: in vivo
Method: (§3) Studies were performed according to the following scheme: • 1. […] Study of the compounds' ulcerogenic action using pharmaceutical dose during 7 days of administration. • 3. Aggravation of ulcerogenic effects of studied compounds by 0.6H hydrochloric acid. • 4. Aggravation of ulcerogenic effects of studied compounds by the known NSAIDs (indomethacin). 1.
(§4) Ulcerogenic effect was assessed using 4-point scale: 0—no damage; 0.5—hyperemia; 1—insignificant damage (1 or 2 small bleedings); 2—multiple damage (erosions, small bleedings); 3—significant and multiple damage (erosions, bleedings); 4—severe damage, affecting all gastric mucosa (massive bleedings, erosions, perforations).
(§5) Male mice with body mass 23-24 g were deprived of food for 24 hours, water access was not limited.
(§6) Drugs of comparison: indomethacin 20 mg/kg, voltaren—50 mg/kg and aminoguanidine—200 mg/kg. Each test group had 10 animals.

mice stomach [4] = experiment: Aggravation of ulcerogenic effect by indomethacin; assay type: in vivo
Method: as §3, §4, §5
Drugs of comparison: voltaren—50 mg/kg and aminoguanidine—200 mg/kg. Each test group had 10 animals.

[5] = system: LPS-induced peritonitis in rats; experiment: LPS-induced peritonitis in rats, volume of exudate; assay type: in vivo; conditions: for Anti-inflammatory activity in LPS-induced peritonitis model, % of control: rats
Method: as §1, with “male rate” for “male mice”, “body mass 170.0-180.0” for “body mice 22.0-23.0”, “coli (Sigma)—1.0 mg/kg” for “coli (Sigma) 1.0 mg/kg,”, “of rats” for “of mice”, “had 7” for “had 10”
as §2

mice stomach [6] = experiment: Irritant action on mice stomach, single administration of 500 mg/kg; assay type: in vivo
Method: Ulcerogenic effect of compound 2 was studied in accordance with Methodical recommendations on experimental (preclinical) research of new nonsteroidal anti-inflammatory drugs. Studies were performed according to the following scheme: • 1. Study of the compounds' irritant action on mice stomach using doses five-times higher than pharmacological dose (single administration). • 2. Study of the compounds' ulcerogenic action using pharmaceutical dose during 7 days of administration. • 3. Aggravation of ulcerogenic effects of studied compounds by 0.6H hydrochloric acid. • 4. Aggravation of ulcerogenic effects of studied compounds by the known NSAIDs (indomethacin). 1. Study of Irritant Action of Compound 2
Male mice with body mass 23-24 g were deprived of food for 24 hours, water access was not limited. Number of animals in a group-10.
Compound 2 in 500 mg/kg dose was administered by a tube into the stomach, after 6 hours the animals were sacrificed, their stomachs extracted, number of ulcers counted and ulcerogenic index calculated. Ulcerogenic effect was assessed using 4-point scale: 0—no damage; 0.5—hyperemia; 1—insignificant damage (1 or 2 small bleedings); 2—multiple damage (erosions, small bleedings); 3—significant and multiple damage (erosions, bleedings); 4—severe damage, affecting all gastric mucosa (massive bleedings, erosions, perforations).

[7] = Assessment of other types of pharmaceutical activity
Excerpt: All discovered types of pharmacological activity of compound 2 are present not only in its hydrochloride form, but also in its other pharmaceutically acceptable salts (e.g. Na, K, Ca, Mg), and also in complex combinations with pharmaceutically acceptable complexones (e.g. with glycyrrhizic acid).

[8] = system: carrageenan-induced peritonitis in mice; experiment: Carrageenan-induced peritonitis in mice, volume of exudate; assay type: in vivo
Method: Research was carried out by a method described in [5]. Experiments were performed using male mice with body mass 23-24 g, in groups of 10 animals. […] The results were processed using variation statistics methods for biological research (mean standard error, means were calculated using Student's t-distribution).

[9] = Study of the compound's toxicity: mice mortality, LD50 by Karber method; assay type: in vivo; conditions: male, mouse, in vivo; oral; stated as 'may exceed'; read-out: LD50 in oral administration
Method: (§7) Study of the compound of formula 2 was conducted in vivo. […] To determine the doses of the compound that would need to be studied, it is first necessary to study its toxicity. Studies were carried out in male mice with body mass 18-20 g. Compound 2 was administered as a water suspension. Each dose was administered to 5 animals. Behavior and overall condition of animals were observed during 5 days. LD50 (the dose causing the death of 50% of animals) was calculated using Karber method.

male mice = experiment: as above; assay type: in vivo; conditions: for Animal mortality: Alive / Animal mortality: Dead: 5 mice per group, 5 days observation
Method: as §7

mice stomach [10] = assay type: in vivo
Method: as §3, §4
After 7 days the animals were sacrificed by CO2, their stomachs extracted and the number of ulcers counted.
as §6

[11] = 50 mg/kg dose, compared with indomethacin

Compound: N=C(N)N/N=C\c1[nH]c2ccccc2c1Nc1ccc([N+](=O)[O-])cc1 [Compound 2, N-[3-(4-nitrophenylamino)-indole-2-ilmethylene]aminoguanidine hydrochloride]
- Chondroprotective effect (cartilage width) ([1]; 50 mg/kg dose): chondroprotective effect of compound 2 was noted
- Degeneration of articular carriage of hock ([1]; 50 mg/kg dose): partially prevented the degeneration of articular carriage of hock
- Development of joint sclerosis and degradation of hind leg interphalangeal joints (x-ray) [1, 11]: most effective in inhibiting the development of joint sclerosis and degradation of hind leg interphalangeal joints, better than the drug of comparison
- Level of TNFα in blood plasma [1, 11]: reduced the level of TNFα as good as the drug of comparison
- Severity of hind leg swelling ([1]; 50 and 75 mg/kg doses): reduced the severity of hind leg swelling
- Development of delayed type hypersensitivity ([1]; adjuvant arthritis, Wistar rats): inhibiting the development of delayed type hypersensitivity
- Leukocytosis ([1]; adjuvant arthritis, Wistar rats, intragastric): reducing leukocytosis
- Anti-inflammatory activity in LPS-induced peritonitis model, % of control ([2]; 25.0 mg/kg per os): 2.2 % of control
- Anti-inflammatory activity in LPS-induced peritonitis model, % of control ([2]; 50.0 mg/kg per os): 46.7* % of control
- Anti-inflammatory activity in LPS-induced peritonitis model, % of control ([2]; 100.0 mg/kg per os): 88.9* % of control
- Anti-inflammatory activity in LPS-induced peritonitis model, % of control ([2]; 200.0 mg/kg per os): 100.0* % of control
- Aggravation of ulceration when combined with 0.6H hydrochloric acid (mice stomach [3]): does not aggravate ulceration
- Average ulcerogenic index (4-point scale) of combining the studied compounds with hydrochloric acid (mice stomach [3]; compound 2 100 mg/kg, indomethacin 20 mg/kg, voltaren 50 mg/kg, aminoguanidine 200 mg/kg, 1 hour before 0.6H HCl 5 ml/kg, after 4 hours): 0.15
- Aggravation of ulceration when combined with indomethacin (mice stomach [4]; indomethacin in 20 mg/kg dose): does not aggravate ulceration
- Average ulcerogenic index (4-point scale) of combining the studied compounds with indomethacin (mice stomach [4]; mice, compound 2 100 mg/kg, voltaren 50 mg/kg, aminoguanidine 200 mg/kg, 1 hour before indomethacin 20 mg/kg, after 5 hours): 2.2
- ED50 ([5]; Rattus norvegicus, po): 48 ± 4.5 mg/kg
- Anti-inflammatory activity in LPS-induced peritonitis model, % of control ([5]; 10.0 mg/kg per os): 2.0 % of control
- Anti-inflammatory activity in LPS-induced peritonitis model, % of control ([5]; 25.0 mg/kg per os): 26.0* % of control
- Anti-inflammatory activity in LPS-induced peritonitis model, % of control ([5]; 50.0 mg/kg per os): 58.0* % of control
- Anti-inflammatory activity in LPS-induced peritonitis model, % of control ([5]; 75.0 mg/kg per os): 78.0* % of control
- Anti-inflammatory activity in LPS-induced peritonitis model, % of control ([5]; 100.0 mg/kg per os): 100.0* % of control
- Anti-inflammatory activity compared with voltaren and aminoguanidine ([5]; summary of tables 2 and 3 (mice and rat peritonitis models)): somewhat inferior to voltaren in used models, but is better than aminoguanidine
- Average ulcerogenic index (4-point scale) of single administration of the compounds in 500.0 mg/kg dose (mice stomach [6]; mice fasted 24 h, into the stomach, sacrificed after 6 hours): 0
- Irritant effect on gastric mucosa (mice stomach [6]; single administration of 500 mg/kg dose): does not have irritant effect on gastric mucosa
- Other types of pharmaceutical activity [7]: possesses anti-allergic, antihypoxic and analgesic activity
- Anti-inflammatory activity in carrageenan-induced peritonitis model, % of control ([8]; 25.0 mg/kg per os): 3.9 % of control
- Anti-inflammatory activity in carrageenan-induced peritonitis model, % of control ([8]; 50.0 mg/kg per os): 21.6* % of control
- Anti-inflammatory activity in carrageenan-induced peritonitis model, % of control ([8]; 100.0 mg/kg per os): 45.1* % of control
- Anti-inflammatory activity in carrageenan-induced peritonitis model, % of control ([8]; 200.0 mg/kg per os): 84.3* % of control
- LD50 at 5 days [9]: > 5000 mg/kg
- Note (behavior) (male mice; 500.0 mg/kg intravenous): Normal behavior
- Animal mortality: Alive (male mice; 500.0 mg/kg intravenous): 5
- Animal mortality: Dead (male mice; 500.0 mg/kg intravenous): 0
- Note (behavior) (male mice; 1000.0 mg/kg intravenous): Normal behavior
- Animal mortality: Alive (male mice; 1000.0 mg/kg intravenous): 5
- Animal mortality: Dead (male mice; 1000.0 mg/kg intravenous): 0
- Note (behavior) (male mice; 1500.0 mg/kg intravenous): Normal behavior
- Animal mortality: Alive (male mice; 1500.0 mg/kg intravenous): 5
- Animal mortality: Dead (male mice; 1500.0 mg/kg intravenous): 0
- Note (behavior) (male mice; 2000.0 mg/kg intravenous): Animals depressed
- Animal mortality: Alive (male mice; 2000.0 mg/kg intravenous): 4
- Animal mortality: Dead (male mice; 2000.0 mg/kg intravenous): 1
- Class of danger as specified by GOST 12.1.007-76 (male mice; after intravenous administration up to 2000.0 mg/kg): third class of danger
- Irritant effect on gastric mucosa (mice stomach [10]; chronic use of 200 mg/kg doses): does not have irritant effect on gastric mucosa
- Average ulcerogenic index (4-point scale) of chronic administration of pharmacological dose (mice stomach [10]; mice, per os 7 days, compound 2 200 mg/kg, indomethacin 20 mg/kg, voltaren 50 mg/kg, aminoguanidine 200 mg/kg): 0
